Experimental data: patent publication US20230329237A1, “MUSA PLANTS, FIELDS […] PLANTS” (Taminco BV, priority 2020, published 2023)

How the values were obtained:
[1] = test system: F. oxysporum f. sp. cubense; assay: Panama disease analysis of soil samples from the treated field (Komada medium); assay type: in vivo, Fusarium oxysporum f. sp. cubense Tropical Race 4; details: any of the treated groups (750-3000 L/ha); any day post application
Experimental: (§1) Metam Sodium Application. Metam sodium 510 SL (equivalent to 42% w/w) was applied to soil at the following doses: 0 liters per hectare (L/ha), 750 L/ha, 1500 L/ha, 2250 L/ha, 3000 L/ha.
(§2) Prior to injection, soil was prepared using a rototiller to break the soil structure from 0 cm to 80 cm deep, allowing for the smooth and even injection application by an injection machine. The soil was then leveled and made uniform, and the metam sodium was applied at two depths: 30 cm and 60 cm, using injection methods. The temperature was at a minimum of 10 °C and soil humidity was between 50 and 60% holding capacity, allowing the applied product to transform from metam sodium (liquid) to MITC (gas).
(§3) The application was made using an injection machine wherein the machine lowered shanks and began moving forward such that the shanks lowered to a depth of 60 cm and injectors applied the metam sodium into the soil. When the injection at 60 cm was complete, the process was repeated for the entire field at 30 cm. The treated soil in the field was then sealed using a packer roller (which was part of the injection machinery, located at the back end of the machine), after each application.
(§4) Soil Analysis. Soil samples were obtained at 20, 40, and 60 cm before application and every 24 hours beginning 48 hours after application, for seven days.
Plant Pathology Analysis. […]

Foc TR4 chlamydospores = assay: In vitro efficacy of metam sodium on Foc TR4 chlamydospores (colonies on PDA plates); assay type: cell-based, Fusarium oxysporum f. sp. cubense Tropical Race 4
Experimental: Foc TR4 chlamydospores were extracted from infested soil and incubated with a dilution series of metam sodium for 5 min and 60 min at room temperature. Thereafter, the samples were diluted 10×to get reduction of the treatment and sufficient dilution of chlamydospores to avoid lack of resolution when grown on plate. Aliquots of 100 μl were plated on PDA plates in duplicate and incubated for 3 days at 25° C. Plates were photographed and scored.

parasitic nematodes = assay: Nematode analysis of soil samples from the treated field; assay type: in vivo; details: any tested soil samples
Experimental: as §4
Plant Pathology Analysis. Soil samples used for Panama Disease and nematode analyses were aseptically isolated in culture medium and incubated for seven days at room temperature. Organisms were identified as follows: 20 grams of composite soil sample was diluted with 40 mL distilled water (dH2O); 1 drop of Tween 20 detergent was added, and the sample mixed. A 1 mL aliquot was taken from the solution and diluted with 9 mL dH2O; three further serial dilutions were made. From each dilution, 100 μL were spread on solid Komada growth medium (Sun et al., Phytopathology 68: 1672-1673, 1978). Growth could be seen 7 days after inoculation.

Cavendish banana plants = assay: Field trial: growth and development of banana plants transplanted into metam sodium treated soil; assay type: in vivo, Musa (Cavendish banana)
Experimental: The analyses described in this example were carried out in the Philippines in a field in which Musa trees (specifically bananas) were to be planted, in the spring (beginning in March). Final determinations were carried out in September of the same year.
as §1, §2, §3
Plant Selection and Transplantation. Cavendish banana plants were used for this investigation. In order to avoid plants already contaminated by other soil, all plants were produced in vitro using art-recognized methods. Plants were transplanted into the field 14 days after the final soil reading was taken (21 days after treatment).
Data Gathering. Data were gathered at monthly intervals beginning three months after banana plants were transplanted. A total of three data collection sessions were conducted. Data including the number of leaves, plant height, and girth size were collected.

[2] = 750 L/ha, six months after treatment
[3] = 1500 L/ha, six months after treatment
[4] = 2250 L/ha, six months after treatment
[5] = 3000 L/ha, six months after treatment

CNC(=S)[S-].[Na+] [metam sodium, sodium N-methyldithiocarbamate]
Foc TR4 in soil (soil contamination) [1]: No Foc TR4 was detected | reducing the number of surviving chlamydospores, measured as growing colonies (Foc TR4 chlamydospores; 100× dilution, prolonged incubation (60 vs 5 minutes)): more effective | efficacy on Foc TR4 colony growth on plates (Foc TR4 chlamydospores; dilution of 10×, incubation time 5 minutes): effective | efficacy on Foc TR4 colony growth on plates (Foc TR4 chlamydospores; dilution of 100×, 5 and 60 minutes): less effective | reduction in viability of Foc TR4 chlamydospores (Foc TR4 chlamydospores; first test, dilutions from 1000 up to 10×10^6-fold, 60 min): No significant reduction in viability | efficacy against Foc TR4 chlamydospores under in vitro conditions (Foc TR4 chlamydospores; overall, dependent on high concentrations): effective against Foc TR4 chlamydospores | efficacy on surviving chlamydospores (Foc TR4 chlamydospores; second test, 10× and 100× dilutions): (partially) effective | number of chlamydospores that survived (Foc TR4 chlamydospores; second test, dilutions of 1000× and more): did not affect the number of chlamydospores that survived | parasitic nematodes in soil (parasitic nematodes): no parasitic nematodes were noted | average girth size of banana plant, increase (Cavendish banana plants; 750 L/ha): ~1 cm | average height of banana plant, increase (Cavendish banana plants; 750 L/ha): ~5 cm | percent of plants at either shooting or bagging stage (Cavendish banana plants; [2]): 11% | percent of plants at shooting stage (Cavendish banana plants; [2]): 9% | plants reaching bagging stage (Cavendish banana plants; [2]): did not have a meaningful effect | average girth size of banana plant, increase (Cavendish banana plants; 1500-3000 L/ha): 4-6 cm | average height of banana plant, increase (Cavendish banana plants; 1500-3000 L/ha): 20-23 cm | percent of plants at either shooting or bagging stage (Cavendish banana plants; [3]): 28% | percent of plants at shooting stage (Cavendish banana plants; [3]): 10% | percent of plants at bagging stage (Cavendish banana plants; 1500 to 3000 L/ha, six months after treatment): 11-19% | percent of plants at either shooting or bagging stage (Cavendish banana plants; [4]): 27% | percent of plants at shooting stage (Cavendish banana plants; [4]): 17% | percent of plants at either shooting or bagging stage (Cavendish banana plants; [5]): 35% | percent of plants at shooting stage (Cavendish banana plants; [5]): 22% | average number of leaves, increase (Cavendish banana plants; regardless of dose applied (750-3000 L/ha), vs 0 L/ha): roughly 1.5 fold
